Data published in DBAASP.
≈ marks a conversion by molar mass, not a printed value.

Assays:
Assay in all cases: ≥ marks a high value that may be exact or a test limit, other limits are often not marked, values filed in µg/mL are converted to µM
[1] = tested on: Staphylococcus aureus ATCC 6538
[2] = tested on: Pseudomonas aeruginosa ATCC 13388
[3] = tested on: Klebsiella pneumoniae ATCC 10031
[4] = tested on: Escherichia coli ATCC 11219
[5] = tested on: Salmonella enterica subsp. enterica serovar Typhimurium ATCC 14028
[6] = tested on: Bacillus subtilis ATCC 6051
[7] = tested on: Escherichia coli NEB5alpha
[8] = tested on: Klebsiella pneumoniae subsp. pneumoniae CGMCC 1.176
[9] = tested on: Enterobacter cloacae CGMCC 1.58
Escherichia coli AS1.349 = tested on: Escherichia coli AS1.349
Bacillus cereus AS1.126 = tested on: Bacillus cereus AS1.126
[10] = tested on: Staphylococcus epidermidis CICC 23664
[11] = tested on: Enterococcus faecalis CGMCC 1.595
[12] = tested on: Staphylococcus aureus AS1.72
[13] = tested on: Enterococcus faecium CGMCC 1.2334
[14] = tested on: Proteus mirabilis CICC 22931
[15] = tested on: Pseudomonas aeruginosa CGMCC 1.860
[16] = tested on: Escherichia coli ATCC 25922
[17] = tested on: Klebsiella pneumoniae ATCC 13883
[18] = tested on: Staphylococcus aureus USA 300 LAC
[19] = tested on: Stenotrophomonas maltophilia ATCC 13637
[20] = tested on: Staphylococcus epidermidis
[21] = tested on: Staphylococcus aureus ATCC 25923
Streptococcus pyogenes = tested on: Streptococcus pyogenes
[22] = tested on: Micrococcus luteus ATCC 10240
[23] = tested on: Pseudomonas aeruginosa ATCC 27853
Proteus mirabilis = tested on: Proteus mirabilis
[24] = tested on: Candida albicans ATCC 90112
[25] = tested on: Bacillus subtilis ATCC 6633
[26] = tested on: Staphylococcus aureus ATCC 29213
Micrococcus luteus A270 = tested on: Micrococcus luteus A270
Candida albicans MDM8 = tested on: Candida albicans MDM8
[27] = tested on: Serratia marcescens ATCC 4112
[28] = tested on: Staphylococcus epidermidis ATCC 12228
Escherichia coli MG1655 = tested on: Escherichia coli MG1655
Bacillus subtilis 168 HT = tested on: Bacillus subtilis 168 HT
[29] = tested on: Staphylococcus aureus USA 300
[30] = tested on: Pseudomonas aeruginosa PAO1

SMILES: CC[C@H](C)[C@H](NC(=O)CN)C(=O)N[C@@H](Cc1cnc[nH]1)C(=O)N[C@@H](CC(=O)O)C(=O)N[C@H](C(=O)N[C@@H](CC(C)C)C(=O)N[C@@H](C)C(=O)N[C@@H](Cc1ccc(O)cc1)C(=O)NCC(=O)N[C@@H](CCCCN)C(=O)N1CCC[C@H]1C(=O)N[C@@H](CO)C(N)=O)[C@@H](C)CC [GIHDILAYGKPS]
- MIC [1]: 10 µM (≈ 12.7 µg/mL)
- MIC [2]: 15 µM (≈ 19 µg/mL)
- MIC [3]: 20 µM (≈ 25.4 µg/mL)
- MIC [4]: 15 µM (≈ 19 µg/mL)
- MIC [5]: 15 µM (≈ 19 µg/mL)

SMILES: CC[C@H](C)[C@H](NC(=O)CN)C(=O)N[C@@H](Cc1cnc[nH]1)C(=O)N[C@@H](CC(=O)O)C(=O)N[C@H](C(=O)N[C@@H](CC(C)C)C(=O)N[C@@H](CCCCN)C(=O)N[C@@H](Cc1ccc(O)cc1)C(=O)NCC(=O)N[C@@H](CCCCN)C(=O)N1CCC[C@H]1C(=O)N[C@@H](C)C(N)=O)[C@@H](C)CC [GIHDILKYGKPA]
- MIC [1]: > 50 µM
- MIC [2]: ≥ 50 µM
- MIC [3]: 30 µM (≈ 39.3 µg/mL)
- MIC [4]: ≥ 50 µM
- MIC [5]: > 50 µM

SMILES: CC[C@H](C)[C@H](NC(=O)[C@@H](N)Cc1cnc[nH]1)C(=O)N[C@@H](CCC(N)=O)C(=O)N[C@@H](CCCCN)C(=O)N[C@@H](CCC(=O)O)C(=O)N[C@@H](CC(=O)O)C(=O)N[C@H](C(=O)N1CCC[C@H]1C(=O)N[C@@H](CO)C(=O)N[C@@H](CCC(=O)O)C(=O)N[C@@H](CCCN=C(N)N)C(=O)N[C@@H](Cc1ccc(O)cc1)C(=O)N[C@@H](CC(C)C)C(=O)NCC(=O)N[C@@H](Cc1ccc(O)cc1)C(=O)N[C@@H](CC(C)C)C(=O)N[C@@H](CCC(=O)O)C(=O)N[C@@H](CCC(N)=O)C(=O)N[C@@H](CC(C)C)C(=O)N[C@@H](CC(C)C)C(=O)N[C@@H](CCCN=C(N)N)C(=O)N[C@@H](CC(C)C)C(=O)N[C@@H](CCCCN)C(=O)N[C@@H](CCCCN)C(=O)N[C@@H](Cc1ccc(O)cc1)C(=O)N[C@@H](CCCCN)C(=O)O)C(C)C [HIQKEDVPSERYLGYLEQLLRLKKYK]
- MIC [6]: ≥ 42.3 µM
- MIC [7]: ≥ 169 µM

SMILES: CC[C@H](C)[C@H](N)C(=O)N[C@@H](CCCCN)C(=O)N[C@@H](CCCCN)C(=O)N[C@H](C(=O)N[C@@H](CC(C)C)C(=O)N[C@@H](CO)C(=O)N[C@@H](CCCCN)C(=O)N[C@H](C(=O)N[C@@H](CCCCN)C(=O)N[C@@H](CCCCN)C(=O)N[C@@H](Cc1c[nH]c2ccccc12)C(=O)N[C@@H](Cc1c[nH]c2ccccc12)C(=O)N[C@@H](CCCCN)C(=O)O)[C@@H](C)CC)[C@@H](C)CC [IKKILSKIKKWWK]
- MIC [8]: ≥ 100 µM
- MIC [9]: ≥ 100 µM
- MIC (Escherichia coli AS1.349): 10 µM (≈ 17 µg/mL)
- MIC (Bacillus cereus AS1.126): 20 µM (≈ 34 µg/mL)
- MIC [10]: 6.25 µM (≈ 10.6 µg/mL)
- MIC [11]: 10 µM (≈ 17 µg/mL)
- MIC [12]: 12.5 µM (≈ 21.2 µg/mL)
- MIC [13]: 12.5 µM (≈ 21.2 µg/mL)
- MIC [14]: ≥ 100 µM
- MIC [15]: 10 µM (≈ 17 µg/mL)

SMILES: CC[C@H](C)[C@H](N)C(=O)N[C@@H](CCCCN)C(=O)N[C@@H](CCCCN)C(=O)N[C@H](C(=O)N[C@@H](Cc1c[nH]c2ccccc12)C(=O)N[C@@H](CO)C(=O)N[C@@H](CCCCN)C(=O)N[C@H](C(=O)N[C@@H](CCCCN)C(=O)N[C@@H](CCCCN)C(=O)N[C@@H](CC(C)C)C(=O)N[C@@H](Cc1c[nH]c2ccccc12)C(=O)N[C@@H](CCCCN)C(=O)O)[C@@H](C)CC)[C@@H](C)CC [IKKIWSKIKKLWK]
- MIC [8]: ≥ 100 µM
- MIC [9]: ≥ 100 µM
- MIC (Escherichia coli AS1.349): 3.13 µM (≈ 5.32 µg/mL)
- MIC (Bacillus cereus AS1.126): 25 µM (≈ 42.5 µg/mL)
- MIC [10]: 5 µM (≈ 8.5 µg/mL)
- MIC [11]: 2.5 µM (≈ 4.25 µg/mL)
- MIC [12]: 2.5 µM (≈ 4.25 µg/mL)
- MIC [13]: 10 µM (≈ 17 µg/mL)
- MIC [14]: ≥ 100 µM
- MIC [15]: 5 µM (≈ 8.5 µg/mL)

SMILES: CC[C@H](C)[C@H](NC(=O)[C@@H](N)CCCCN)C(=O)N[C@@H](Cc1c[nH]c2ccccc12)C(=O)N[C@@H](Cc1c[nH]c2ccccc12)C(=O)N[C@@H](Cc1c[nH]c2ccccc12)C(=O)N[C@@H](Cc1c[nH]c2ccccc12)C(=O)N[C@@H](CC(C)C)C(=O)N[C@@H](CCCN=C(N)N)C(N)=O [KIWWWWLR]
- MIC [16]: 8.8 µM (≈ 11.2 µg/mL)
- MIC [17]: 12.5 µM (≈ 15.9 µg/mL)
- MIC [18]: 3.1 µM (≈ 3.94 µg/mL)

SMILES: CC[C@H](C)[C@H](NC(=O)[C@H](CO)NC(=O)[C@H](CCC(=O)O)NC(=O)[C@H](CCCCN)NC(=O)[C@@H](NC(=O)[C@@H](N)CCCCN)C(C)C)C(=O)N[C@H](C(=O)N[C@@H](CCCN=C(N)N)C(=O)N[C@@H](CCCCN)C(=O)N[C@@H](CC(C)C)C(=O)O)[C@@H](C)CC [KVKESIIRKL]
- MIC [6]: ≥ 500 µM
- MIC [7]: ≥ 1000 µM

SMILES: CC[C@H](C)[C@H](NC(=O)[C@H](CC(C)C)NC(=O)CNC(=O)[C@H](CCCCN)NC(=O)[C@H](CC(C)C)NC(=O)[C@H](CC(N)=O)NC(=O)[C@@H](N)CC(C)C)C(=O)N[C@@H](CCCCN)C(=O)N[C@@H](CCCCN)C(=O)N[C@H](C(=O)N[C@@H](C)C(=O)N[C@@H](CO)C(=O)N[C@@H](CC(C)C)C(=O)N[C@@H](CC(C)C)C(=O)N[C@@H](CC(N)=O)C(=O)O)C(C)C [LNLKGLIKKVASLLN]
- MIC [16]: 30 µM (≈ 48.7 µg/mL)
- MIC [19]: 15 µM (≈ 24.4 µg/mL)
- MIC [20]: 30 µM (≈ 48.7 µg/mL)
- MIC [21]: 60 µM (≈ 97.4 µg/mL)
- MIC (Streptococcus pyogenes): 15 µM (≈ 24.4 µg/mL)
- MIC [22]: 15 µM (≈ 24.4 µg/mL)
- MIC [23]: 30 µM (≈ 48.7 µg/mL)
- MIC (Proteus mirabilis): ≥ 60 µM
- MIC [24]: 7.5 µM (≈ 12.2 µg/mL)
- MIC [25]: 7.5 µM (≈ 12.2 µg/mL)

SMILES: CC(C)C[C@H](NC(=O)[C@H](CO)NC(=O)[C@H](Cc1ccccc1)NC(=O)[C@@H]1CCCN1C(=O)[C@@H](N)CCC(N)=O)C(=O)N[C@@H](CCC(=O)O)C(=O)N[C@@H](CCCN=C(N)N)C(=O)N[C@@H](Cc1c[nH]c2ccccc12)C(=O)O [QPFSLERW]
- MIC [26]: 189 µM (≈ 201 µg/mL)
- MIC (Micrococcus luteus A270): ≥ 94.5 µM
- MIC (Candida albicans MDM8): ≥ 189 µM
- MIC [27]: ≥ 47.2 µM
- MIC [28]: 189 µM (≈ 201 µg/mL)

SMILES: CC[C@H](C)[C@H](NC(=O)[C@H](CCCCN)NC(=O)[C@H](CCCCN)NC(=O)[C@H](CC(C)C)NC(=O)[C@H](Cc1cnc[nH]1)NC(=O)[C@H](CCCCN)NC(=O)[C@H](CCCCN)NC(=O)[C@H](CC(C)C)NC(=O)[C@@H](N)CCCN=C(N)N)C(=O)N[C@@H](CCCCN)C(=O)O [RLKKHLKKIK]
- MIC (Escherichia coli MG1655): ≥ 99.1 µM
- MIC (Bacillus subtilis 168 HT): ≥ 99.1 µM

SMILES: CC[C@H](C)[C@H](NC(=O)[C@H](CCCN=C(N)N)NC(=O)[C@H](CCCN=C(N)N)NC(=O)[C@H](CCCN=C(N)N)NC(=O)[C@H](Cc1c[nH]c2ccccc12)NC(=O)[C@H](Cc1c[nH]c2ccccc12)NC(=O)[C@@H](N)Cc1c[nH]c2ccccc12)C(=O)N[C@@H](Cc1c[nH]c2ccccc12)C(N)=O [WWWRRRIW]
- MIC [16]: 25 µM (≈ 33.6 µg/mL)
- MIC [17]: 25 µM (≈ 33.6 µg/mL)
- MIC [29]: 12.5 µM (≈ 16.8 µg/mL)
- MIC [30]: 35.4 µM (≈ 47.5 µg/mL)
- MIC [18]: 12.5 µM (≈ 16.8 µg/mL)
